Results reported in patent publication US20170101684A1, “METHOD FOR DIAGNOSING AND TREATING MULTIPLE MYELOMA” (Erasmus University Medical Center Rotterdam, priority 2014, published 2017).

Legend:
[1] = system: MM patients with amp1q chromosomal aberration; assay: Overall survival (Kaplan Meier) of MM patients with amp1q by classical FISH, PAD versus VAD; assay type: in vivo, human; details: MM patients with an amp1q chromosomal aberration
From the text: FIG. 1: Kaplan Meier curve showing 60 MM patients (see Table 2) identified as having an additional copy of chromosome 1q (amp1q) using classical FISH analysis. […] Upper line: amp1q cases treated with PAD; lower line: amp1q cases treated with VAD. Hazard Ratio=3.59, p=0.0037.
FIG. 1 provides a Kaplan-Meier curve wherein the top line represents amp1q cases treated with Bortezomib (a proteasome inhibitor), Adriamycin and Dexamethasone (PAD), and the bottom line represents amp1q cases treated with a conventional therapy (Vincristine Adriamycin Dexamethasone or VAD). A Hazard Ratio of 3.59 (p=0.0037) was found. It was concluded that MM patients with amp1q may be preferentially treated with a proteasome inhibitor such as Bortezomib since that provides these patients with a better life expectancy.
FISH analysis was performed in 304 patients. In nonpurified plasma cell samples (n=125), at least 200 interphase nuclei per sample were analyzed by the use of epi-fluorescence microscopy and image analysis software. Within several cases, a preceding analysis of selected myeloma cells was determined by immunoglobulin light chain counterstaining or morphology. In CD138-purified PC samples (n=179), 100 nuclei were evaluated by the use of an epifluorescence microscope (Leica Microsystems). […]

[2] = system: MM subjects without the amp1q chromosomal aberration; assay: Response of MM patients without amp1q to proteasome inhibitor; assay type: in vivo, human
From the text: Methods for determining whether a subject with MM has an amp1q chromosomal aberration are known in the art, and any such methods may be used in aspects of this disclosure, although preferred embodiments will be disclosed herein below.

In the case of `CC(C)C[C@H](NC(=O)[C@H](Cc1ccccc1)NC(=O)c1cnccn1)B(O)O` [Bortezomib], the Response to treatment [1] is reported as “respond well” and the Response to treatment [2] is reported as “do not experience this advantageous response”.
